One may read the pIC50 as −log10 of the IC50, conventionally taken in molar units. Lower therefore signals a large IC50.

pIC50: −log10 of the molar value.

Experimental findings from patent US9242996B2 (Novartis AG, priority 2013, dated 2016) are described below.

Sequence of activated ERK2 (P28482 whole entry): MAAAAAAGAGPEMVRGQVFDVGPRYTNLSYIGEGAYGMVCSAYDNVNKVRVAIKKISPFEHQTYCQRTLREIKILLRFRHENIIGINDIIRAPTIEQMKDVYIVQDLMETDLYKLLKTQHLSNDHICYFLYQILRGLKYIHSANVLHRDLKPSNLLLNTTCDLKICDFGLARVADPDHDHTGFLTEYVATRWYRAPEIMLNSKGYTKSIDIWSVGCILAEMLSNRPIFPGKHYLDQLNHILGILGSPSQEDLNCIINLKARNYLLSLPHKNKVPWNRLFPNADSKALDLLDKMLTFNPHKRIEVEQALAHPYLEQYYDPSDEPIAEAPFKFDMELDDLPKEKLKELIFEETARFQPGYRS

The target in the assay is activated ERK2 (Homo sapiens (Human), UniProt P28482). The experiment in a line: Activated ERK2 kinase assay, ERK2 New conditions (AlphaScreen, ERKtide phosphorylation). The assay is classed as biochemical. Conditions: 0.25 nM ERK2, 200 nM ERKtide peptide, 35 μM ATP, 30 min preincubation. The method, boiled down:
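0.25 nM ERK2 preincubated 30 min with compound, then reacted 2–3 h at ambient temperature with 200 nM ERKtide and 35 µM ATP (final) in HEPES pH 7.5 buffer. EDTA stop; phospho-peptide detected by AlphaScreen after overnight incubation; IC50 from four-parameter fit.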
In general terms: Bead proximity is the source of the signal in Alpha formats.
The compound `CS(=O)(=O)N1CCCC(c2cnc(N)c(-c3ccc(C(=O)N[C@H](CO)c4ccccc4)c(F)c3)n2)C1` (stereo partly drawn) [Example 213, 4-(3-amino-6-(1-(methylsulfonyl)piperidin-3-yl)pyrazin-2-yl)-2-fluoro-N—((S)-2-hydroxy-1-phenylethyl)benzamide] gave a negative-log IC50 (pIC50) of 7.92.

Regarding `COC(=O)N1CCCC(c2cnc(N)c(-c3ccc(C(=O)N[C@H](CO)c4ccccc4)c(F)c3)n2)C1` (stereo partly drawn) [Example 214, methyl 3-(5-amino-6-(3-fluoro-4-(((S)-2-hydroxy-1-phenylethyl)carbamoyl)phenyl)pyrazin-2-yl)piperidine-1-carboxylate], the pIC50 was 7.87.

`CC(=O)N1CCCC(c2cnc(N)c(-c3ccc(C(=O)N[C@H](CO)c4ccccc4)c(F)c3)n2)C1` (stereo partly drawn) [Example 215, 4-(6-(1-acetylpiperidin-3-yl)-3-aminopyrazin-2-yl)-2-fluoro-N—((S)-2-hydroxy-1-phenylethyl)benzamide]: the negative logarithm of the IC50 (pIC50) is 7.55. Compound `COC(=O)N1CCCC(c2cnc(N)c(-c3ccc(C(=O)N[C@H](CO)c4cccc(Cl)c4)c(F)c3)n2)C1` (stereo partly drawn) [Example 216, methyl 3-(5-amino-6-(4-(((S)-1-(3-chlorophenyl)-2-hydroxyethyl)carbamoyl)-3-fluorophenyl)pyrazin-2-yl)piperidine-1-carboxylate] had a negative-log IC50 (pIC50) of 8.74. The value for `CCn1cc(-c2cnc(N)c(-c3ccc(C(=O)N[C@H](CO)c4ccccc4)c(F)c3)n2)cn1` [Example 217, (S)-4-(3-amino-6-(1-ethyl-1H-pyrazol-4-yl)pyrazin-2-yl)-2-fluoro-N-(2-hydroxy-1-phenylethyl) benzamide] was 8.95; that for `Nc1ncc(C2CNC(=O)C2)cc1-c1ccc(C(=O)N[C@H](CO)c2ccccc2)c(F)c1` (stereo partly drawn) [Example 218, 4-(2-amino-5-(5-oxopyrrolidin-3-yl)pyridin-3-yl)-2-fluoro-N—((S)-2-hydroxy-1-phenylethyl)benzamide] was 7.62. The value for `Nc1ncc([C@@H]2CNC(=O)C2)cc1-c1ccc(C(=O)N[C@H](CO)c2ccccc2)c(F)c1` [Example 219, 4-(2-amino-5-((R)-5-oxopyrrolidin-3-yl)pyridin-3-yl)-2-fluoro-N—((S)-2-hydroxy-1-phenylethyl)benzamide] was 7.49; that for `Nc1ncc([C@H]2CNC(=O)C2)cc1-c1ccc(C(=O)N[C@H](CO)c2ccccc2)c(F)c1` [Example 220, 4-(2-amino-5-((S)-5-oxopyrrolidin-3-yl)pyridin-3-yl)-2-fluoro-N—((S)-2-hydroxy-1-phenylethyl)benzamide] was 7.14; that for `COC(=O)[C@@H]1C[C@H](c2cnc(N)c(-c3ccc(C(=O)N[C@H](CO)c4cccc(Cl)c4)c(F)c3)c2)CN1` [Example 221, (2S,4R)-methyl 4-(6-amino-5-(4-(((S)-1-(3-chlorophenyl)-2-hydroxyethyl)carbamoyl)-3-fluorophenyl)pyridin-3-yl)pyrrolidine-2-carboxylate] was 7.51. `Nc1ncc([C@@H]2CN[C@H](C(=O)O)C2)cc1-c1ccc(C(=O)N[C@H](CO)c2cccc(Cl)c2)c(F)c1` [Example 222, (2S,4R)-4-(6-amino-5-(4-(((S)-1-(3-chlorophenyl)-2-hydroxyethyl)carbamoyl)-3-fluorophenyl)pyridin-3-yl)pyrrolidine-2-carboxylic acid] showed a pIC50 of 7.61. As for `COC(=O)[C@@H]1C[C@H](c2cnc(N)c(-c3ccc(C(=O)N[C@H](CO)c4cccc(Cl)c4)c(F)c3)c2)CN1` [Example 223, (2S,4R)-methyl 4-(6-amino-5-(4-(((S)-1-(3-chlorophenyl)-2-hydroxyethyl)carbamoyl)-3-fluorophenyl)pyridin-3-yl)pyrrolidine-2-carboxylate], the negative logarithm of the IC50 (pIC50) was 7.98.

In turn, `Nc1ncc(C2COC2)nc1-c1ccc(C(=O)N[C@H](CO)c2ccccc2)c(F)c1` [Example 224, (S)-4-(3-amino-6-(oxetan-3-yl)pyrazin-2-yl)-2-fluoro-N-(2-hydroxy-1-phenylethyl)benzamide] showed a pIC50 of 7.73. The value for `Cn1nccc1-c1cnc(N)c(-c2ccc(C(=O)N[C@H](CO)c3cccc(F)c3)c(F)c2)c1` [Example 229, (S)-4-(2-amino-5-(1-methyl-1H-pyrazol-5-yl)pyridin-3-yl)-2-fluoro-N-(1-(3-fluorophenyl)-2-hydroxyethyl) benzamide] was 8.97; that for `Cn1nccc1-c1cnc(N)c(-c2ccc(C(=O)N[C@H](CO)c3cccc(S(C)(=O)=O)c3)c(F)c2)c1` [Example 230, (S)-4-(2-amino-5-(1-methyl-1H-pyrazol-5-yl)pyridin-3-yl)-2-fluoro-N-(2-hydroxy-1-(3-(methylsulfonyl)phenyl)ethyl) benzamide] was 9.05; that for `Cc1cccc([C@@H](CO)NC(=O)c2ccc(-c3cc(-c4ccnn4C)cnc3N)cc2F)c1` [Example 231, (S)-4-(2-amino-5-(1-methyl-1H-pyrazol-5-yl)pyridin-3-yl)-2-fluoro-N-(2-hydroxy-1-(m-tolyl)ethyl) benzamide] was 9.66. In turn, `Cn1nccc1-c1cnc(N)c(-c2ccc(C(=O)N[C@H](CO)c3cc(F)cc(Cl)c3)c(F)c2)c1` [Example 232, (S)-4-(2-amino-5-(1-methyl-1H-pyrazol-5-yl)pyridin-3-yl)-N-(1-(3-chloro-5-fluorophenyl)-2-hydroxyethyl)-2-fluorobenzamide] showed a pIC50 of 9.59. As for `Cn1cncc1-c1cnc(N)c(-c2ccc(C(=O)N[C@H](CO)c3cccc(F)c3)c(F)c2)c1` [Example 234, (S)-4-(2-amino-5-(1-methyl-1H-imidazol-5-yl)pyridin-3-yl)-2-fluoro-N-(1-(3-fluorophenyl)-2-hydroxyethyl) benzamide], the negative logarithm of the IC50 (pIC50) was 8.83. For the compound `Cn1cncc1-c1cnc(N)c(-c2ccc(C(=O)N[C@H](CO)c3cccc(Cl)c3)c(F)c2)c1` [Example 235, (S)-4-(2-amino-5-(1-methyl-1H-imidazol-5-yl)pyridin-3-yl)-N-(1-(3-chlorophenyl)-2-hydroxyethyl)-2-fluorobenzamide], the pIC50 is 9.49. `Cn1cc(-c2cnc(N)c(-c3ccc(C(=O)NCc4cccc(Cl)n4)c(F)c3)c2)cn1` [Example 236, 4-(2-amino-5-(1-methyl-1H-pyrazol-4-yl)pyridin-3-yl)-N-((6-chloropyridin-2-yl)methyl)-2-fluorobenzamide] gave a pIC50 of 7.25. This pIC50 is 2.24 log units lower than that of the compound before.

With `Cn1cc(CNC(=O)c2ccc(-c3cc(-c4cnn(C)c4)cnc3N)cc2F)cn1` [Example 237, 4-(2-amino-5-(1-methyl-1H-pyrazol-4-yl)pyridin-3-yl)-2-fluoro-N-((1-methyl-1H-pyrazol-4-yl)methyl) benzamide], the pIC50 was 5.58. The same measure for `Cn1cc(-c2cnc(N)c(-c3ccc(C(=O)NCc4nccs4)c(F)c3)c2)cn1` [Example 238, 4-(2-amino-5-(1-methyl-1H-pyrazol-4-yl)pyridin-3-yl)-2-fluoro-N-(thiazol-2-ylmethyl) benzamide]: 6.45; for `Cn1cc(-c2cnc(N)c(-c3ccc(C(=O)NCc4ccsc4)c(F)c3)c2)cn1` [Example 239, 4-(2-amino-5-(1-methyl-1H-pyrazol-4-yl)pyridin-3-yl)-2-fluoro-N-(thiophen-3-ylmethyl) benzamide]: 7.55.
